Assay results reported in paper PMC13198257, “An aerosolized dual-action autotaxin inhibitor-PPARγ agonist for the treatment of pulmonary fibrosis” (Cell Reports Medicine, 2026).

Tested on: lung gene expression
Assay: RNA sequencing of lung tissue (BLM/EL244 vs BLM)
Type: in vivo, mouse
Description: RNA quality was assessed using an Agilent TapeStation 4150 with the High Sensitivity […] ScreenTape (Agilent), according to the manufacturer’s protocols. For library preparation, the QuantSeq 3’mRNA-Seq Library Prep Kit (Lexogen) was used according to manufacturer’s instructions. Briefly, 500 ng of RNA from each sample was used for first-strand synthesis, followed by RNA template removal, and second-strand synthesis initiated by random primers. In-line barcodes were introduced at this step, and this was followed by magnetic bead-based purification. The resulting libraries were amplified for 15 cycles and re-purified, with quantity and quality assessed on a Qubit 4 Fluorometer with the Invitrogen Qubit dsDNA HS Assay and an Agilent Tapestation 4150 with the High Sensitivity D1000 assay kit, respectively. The quantified libraries were pooled equimolarly; 50ng of total library mix was used for Adapter Conversion PCR Amplification using the Universal Library Conversion Kit (App-A), Version: V1.0 (MGI Tech Co., Ltd.), according to the manufacturer’s instructions.
The quantity and quality of the purified adapter conversion PCR (AC-PCR) product were evaluated on a Qubit 4 Fluorometer with the Invitrogen Qubit dsDNA HS Assay and on an Agilent Tapestation 4150 with the High Sensitivity D1000 assay kit, respectively. This was followed by DNA denaturation, Single-Strand Circularisation, Enzymatic Digestion, Enzymatic Digestion Product Cleanup and Quality Control steps on 1 pmol of AC-PCR product, according to the Universal Library Conversion Kit (App-A) User Manual (Version: A3).
Finally, 60 fmol of ssCirDNA were used for DNB preparation and sequencing on a DNBSEQ-G400 platform at the BSRC Alexander Fleming Genomics Facility, using a G400 App-A FCS SE100 High-throughput Sequencing Set (MGI Tech Co., Ltd.), according to the manufacturer’s instructions.
Alignment of the FASTQ files was performed against the mouse genome build mm10 using a custom Bash script.[143] Read counting on the 3′ UTRs and differential expression analysis were conducted using the metaseqR2 bioconductor package.[144] Genes corresponding to the following biotypes were excluded: polymorphic_pseudogene, processed_transcript, pseudogene, IG_V_pseudogene, misc_RNA, IG_C_gene, IG_J_gene, IG_D_gene, IG_LV_gene, TR_V_gene, TR_V_pseudogene, TEC, and processed_pseudogene. Gene counts were normalized with DESEQ[145] through metaseqR2. Genes with more than 10 counts in at least 50% of the samples were kept for further processing. For differential expression analysis, the PANDORA algorithm[146] was used to estimate a meta p-value integrating the results from the DESEQ, DESEQ2,[147] edgeR,[148] limma,[149] NBPSeq,[150] and NOISeq[151] algorithms. All additional parameters were set to default values.
Pathway enrichment analysis was performed for the Gene Ontology Biological process (BP) and Molecular Function (MF) terms through GeneCodis 4.[152] The volcano plots, scatterplots, Venn diagrams, and dot plots were generated using the ggplot2 Bioconductor package.

SMILES: O=C1NC(=O)C(Cc2ccc(OCCC3CCN(C(=O)OCc4cc(Cl)cc(Cl)c4)CC3)cc2)S1 (stereo not drawn) [EL244, 3,5-dichlorobenzyl 4-(2-(4-((2,4-dioxothiazolidin-5-yl)methyl)phenoxy)ethyl)piperidine-1-carboxylate]
- log2 nFC BLM/EL244 vs BLM (DEG Ccl9): -1.37
- log2 nFC BLM/EL244 vs BLM (DEG Ccnb1): -2.41
- Cd300lg log2 nFC BLM/EL244 vs BLM (DEG Cd300lg, nFC: normalised fold change): 1.18
- log2 nFC BLM/EL244 vs BLM (DEG Cdc20): -1.58
- log2 nFC BLM/EL244 vs BLM (DEG Cdca2): -1.33
- log2 nFC BLM/EL244 vs BLM (DEG Cenpa): -1.31
- log2 nFC BLM/EL244 vs BLM (DEG Cenpk): -1.51
- log2 nFC BLM/EL244 vs BLM (DEG Cenpw): -1.33
- Cep85l log2 nFC BLM/EL244 vs BLM (DEG Cep85l, nFC: normalised fold change): 1.02
- log2 nFC BLM/EL244 vs BLM (DEG Cercam): -1.37
- Cfap100 log2 nFC BLM/EL244 vs BLM (DEG Cfap100, nFC: normalised fold change): 0.89
- Cfap206 log2 nFC BLM/EL244 vs BLM (DEG Cfap206, nFC: normalised fold change): 0.77
- Cftr log2 nFC BLM/EL244 vs BLM (DEG Cftr, nFC: normalised fold change): 0.96
- Chia1 log2 nFC BLM/EL244 vs BLM (DEG Chia1, nFC: normalised fold change): 1.16
- Chrdl1 log2 nFC BLM/EL244 vs BLM (DEG Chrdl1, nFC: normalised fold change): 1.39
- log2 nFC BLM/EL244 vs BLM (DEG Chsy3): -1.56
- Cidec log2 nFC BLM/EL244 vs BLM (DEG Cidec, nFC: normalised fold change): 1.57
- log2 nFC BLM/EL244 vs BLM (DEG Cilp): -1.39
- log2 nFC BLM/EL244 vs BLM (DEG Ckap2): -2.44
- Ckm log2 nFC BLM/EL244 vs BLM (DEG Ckm, nFC: normalised fold change): 2.32
- Ckmt2 log2 nFC BLM/EL244 vs BLM (DEG Ckmt2, nFC: normalised fold change): 2.73
- log2 nFC BLM/EL244 vs BLM (DEG Cks1b): -1.54
- Cldn5 log2 nFC BLM/EL244 vs BLM (DEG Cldn5, nFC: normalised fold change): 0.97
- log2 nFC BLM/EL244 vs BLM (DEG Clec4a2): -1.26
- log2 nFC BLM/EL244 vs BLM (DEG Clec4n): -1.39
- log2 nFC BLM/EL244 vs BLM (DEG Col1a2): -1.41
- log2 nFC BLM/EL244 vs BLM (DEG Col3a1): -1.54
- log2 nFC BLM/EL244 vs BLM (DEG Col5a1): -1.52
- log2 nFC BLM/EL244 vs BLM (DEG Col5a2): -1.48
- log2 nFC BLM/EL244 vs BLM (DEG Col5a3): -1.53
- Colq log2 nFC BLM/EL244 vs BLM (DEG Colq, nFC: normalised fold change): 1.81
- Cox6a2 log2 nFC BLM/EL244 vs BLM (DEG Cox6a2, nFC: normalised fold change): 1.42
- Crebl2 log2 nFC BLM/EL244 vs BLM (DEG Crebl2, nFC: normalised fold change): 0.79
- Crispld2 log2 nFC BLM/EL244 vs BLM (DEG Crispld2, nFC: normalised fold change): 0.80
- Cry2 log2 nFC BLM/EL244 vs BLM (DEG Cry2, nFC: normalised fold change): 0.70
- Csf3r log2 nFC BLM/EL244 vs BLM (DEG Csf3r, nFC: normalised fold change): 1.69
- Csrnp1 log2 nFC BLM/EL244 vs BLM (DEG Csrnp1, nFC: normalised fold change): 0.83
- Csrp3 log2 nFC BLM/EL244 vs BLM (DEG Csrp3, nFC: normalised fold change): 2.07
- Cst8 log2 nFC BLM/EL244 vs BLM (DEG Cst8, nFC: normalised fold change): 1.41
- Ctla2a log2 nFC BLM/EL244 vs BLM (DEG Ctla2a, nFC: normalised fold change): 0.72
- Ctla2b log2 nFC BLM/EL244 vs BLM (DEG Ctla2b, nFC: normalised fold change): 0.96
- log2 nFC BLM/EL244 vs BLM (DEG Cxcl13): -1.42
- Cxcr2 log2 nFC BLM/EL244 vs BLM (DEG Cxcr2, nFC: normalised fold change): 1.19
- Cyp2a5 log2 nFC BLM/EL244 vs BLM (DEG Cyp2a5, nFC: normalised fold change): 1.66
- Cyp2d22 log2 nFC BLM/EL244 vs BLM (DEG Cyp2d22, nFC: normalised fold change): 0.97
- Cyp2f2 log2 nFC BLM/EL244 vs BLM (DEG Cyp2f2, nFC: normalised fold change): 0.79
- Cyp4b1 log2 nFC BLM/EL244 vs BLM (DEG Cyp4b1, nFC: normalised fold change): 1.18
- log2 nFC BLM/EL244 vs BLM (DEG Cyp7b1): -1.41
- Cytl1 log2 nFC BLM/EL244 vs BLM (DEG Cytl1, nFC: normalised fold change): 1.67
- D630024D03Rik log2 nFC BLM/EL244 vs BLM (DEG D630024D03Rik, nFC: normalised fold change): 1.60
- Dgkh log2 nFC BLM/EL244 vs BLM (DEG Dgkh, nFC: normalised fold change): 0.84
- Dnali1 log2 nFC BLM/EL244 vs BLM (DEG Dnali1, nFC: normalised fold change): 0.73
- log2 nFC BLM/EL244 vs BLM (DEG Dok2): -1.37
- Dpep1 log2 nFC BLM/EL244 vs BLM (DEG Dpep1, nFC: normalised fold change): 0.71
- Dpysl5 log2 nFC BLM/EL244 vs BLM (DEG Dpysl5, nFC: normalised fold change): 1.90
- Dusp1 log2 nFC BLM/EL244 vs BLM (DEG Dusp1, nFC: normalised fold change): 0.86
- log2 nFC BLM/EL244 vs BLM (DEG E2f8): -1.57
